# Measured values reported in ChEMBL document CHEMBL4507286 (2021).
# Key:
# [1] = tested on: Phosphatidylinositol 4,5-bisphosphate 3-kinase catalytic subunit alpha isoform (Homo sapiens), P42336 [H1047L]
# [2] = molecular target: Inhibitor of nuclear factor kappa-B kinase subunit epsilon (Homo sapiens) (UniProt Q14164)
# [3] = molecular target: Serine/threonine-protein kinase RIO1 (Homo sapiens) (UniProt Q9BRS2)
# [4] = molecular target: Serine/threonine-protein kinase PLK4 (Homo sapiens) (UniProt O00444)
# [5] = molecular target: Macrophage-stimulating protein receptor (Homo sapiens) (UniProt Q04912)
# [6] = tested on: Epidermal growth factor receptor (Homo sapiens), P00533 [UNDEFINED MUTATION]
# [7] = molecular target: Uncharacterized serine/threonine-protein kinase SBK3 (Homo sapiens) (UniProt P0C264)
# [8] = molecular target: Serine/threonine-protein kinase DCLK2 (Homo sapiens) (UniProt Q8N568)
# [9] = molecular target: Mitogen-activated protein kinase 3 (Homo sapiens) (UniProt P27361)
# [10] = molecular target: Cyclin-dependent kinase 5 (Homo sapiens, UniProt Q00535)
# [11] = molecular target: Serine/threonine-protein kinase PAK 5 (Homo sapiens) (UniProt Q9P286)
# [12] = tested on: Phosphatidylinositol 4,5-bisphosphate 3-kinase catalytic subunit alpha isoform (Homo sapiens), P42336 [E542K]
# [13] = molecular target: Dual specificity protein kinase TTK (Homo sapiens) (UniProt P33981)
# [14] = tested on: Receptor-type tyrosine-protein kinase FLT3 (Homo sapiens), P36888 [N841I]
# [15] = molecular target: Dual specificity mitogen-activated protein kinase kinase 6 (Homo sapiens) (UniProt P52564)
# [16] = molecular target: Muscarinic acetylcholine receptor M5 (Homo sapiens) (UniProt P08912); details: Compound concentration 10.0 uM
# [17] = molecular target: Protein kinase C delta type (Homo sapiens) (UniProt Q05655)
# [18] = molecular target: Muscarinic acetylcholine receptor M4 (Homo sapiens) (UniProt P08173); details: Compound concentration 10.0 uM
# [19] = molecular target: MAP/microtubule affinity-regulating kinase 3 (Homo sapiens) (UniProt P27448)
# [20] = molecular target: Bone morphogenetic protein receptor type-1B (Homo sapiens) (UniProt O00238)
# [21] = molecular target: Hepatocyte growth factor receptor (Homo sapiens) (UniProt P08581)
# [22] = molecular target: Serine/threonine-protein kinase BRSK2 (Homo sapiens) (UniProt Q8IWQ3)
# [23] = molecular target: Serine/threonine-protein kinase Sgk2 (Homo sapiens) (UniProt Q9HBY8)
# [24] = molecular target: Tyrosine-protein kinase CSK (Homo sapiens) (UniProt P41240)
# [25] = molecular target: Proto-oncogene tyrosine-protein kinase Src (Homo sapiens) (UniProt P12931)
# [26] = molecular target: Activin receptor type-2B (Homo sapiens) (UniProt Q13705)
# [27] = molecular target: Macrophage colony-stimulating factor 1 receptor (Homo sapiens) (UniProt P07333)
# [28] = molecular target: Leukocyte tyrosine kinase receptor (Homo sapiens) (UniProt P29376)
# [29] = molecular target: Phosphorylase b kinase regulatory subunit alpha, liver isoform (Homo sapiens) (UniProt P46019)
# [30] = tested on: Mast/stem cell growth factor receptor Kit (Homo sapiens), P10721 [D816H]
# [31] = molecular target: Serine/threonine-protein kinase pim-3 (Homo sapiens) (UniProt Q86V86)
# [32] = molecular target: Insulin-like growth factor 1 receptor (Homo sapiens) (UniProt P08069)
# [33] = molecular target: Serine/threonine-protein kinase D2 (Homo sapiens) (UniProt Q9BZL6)
# [34] = molecular target: Ephrin type-A receptor 1 (Homo sapiens) (UniProt P21709)
# [35] = molecular target: Casein kinase II subunit alpha (Homo sapiens) (UniProt P68400)
# [36] = tested on: Phosphatidylinositol 4,5-bisphosphate 3-kinase catalytic subunit alpha isoform (Homo sapiens), P42336 [C420R]
# [37] = molecular target: Cyclin-dependent kinase 11B (Homo sapiens) (UniProt P21127)
# [38] = molecular target: Ephrin type-A receptor 4 (Homo sapiens) (UniProt P54764)
# [39] = molecular target: Tyrosine-protein kinase receptor Tie-1 (Homo sapiens) (UniProt P35590)
# [40] = tested on: Tyrosine-protein kinase ABL1 (Homo sapiens), P00519 [F317L]
# [41] = molecular target: Serine/threonine-protein kinase Nek1 (Homo sapiens) (UniProt Q96PY6)
# [42] = molecular target: Ephrin type-A receptor 3 (Homo sapiens) (UniProt P29320)
# [43] = molecular target: Serine/threonine-protein kinase Chk2 (Homo sapiens) (UniProt O96017)
# [44] = molecular target: Myosin light chain kinase (Homo sapiens) (UniProt Q32MK0)
# [45] = molecular target: Interleukin-1 receptor-associated kinase 1 (Homo sapiens) (UniProt P51617)
# [46] = Compound concentration 1000.0 nM
# [47] = Compound concentration 100.0 nM
# Chain of Inhibitor of nuclear factor kappa-B kinase subunit epsilon (Homo sapiens) (Q14164 whole entry): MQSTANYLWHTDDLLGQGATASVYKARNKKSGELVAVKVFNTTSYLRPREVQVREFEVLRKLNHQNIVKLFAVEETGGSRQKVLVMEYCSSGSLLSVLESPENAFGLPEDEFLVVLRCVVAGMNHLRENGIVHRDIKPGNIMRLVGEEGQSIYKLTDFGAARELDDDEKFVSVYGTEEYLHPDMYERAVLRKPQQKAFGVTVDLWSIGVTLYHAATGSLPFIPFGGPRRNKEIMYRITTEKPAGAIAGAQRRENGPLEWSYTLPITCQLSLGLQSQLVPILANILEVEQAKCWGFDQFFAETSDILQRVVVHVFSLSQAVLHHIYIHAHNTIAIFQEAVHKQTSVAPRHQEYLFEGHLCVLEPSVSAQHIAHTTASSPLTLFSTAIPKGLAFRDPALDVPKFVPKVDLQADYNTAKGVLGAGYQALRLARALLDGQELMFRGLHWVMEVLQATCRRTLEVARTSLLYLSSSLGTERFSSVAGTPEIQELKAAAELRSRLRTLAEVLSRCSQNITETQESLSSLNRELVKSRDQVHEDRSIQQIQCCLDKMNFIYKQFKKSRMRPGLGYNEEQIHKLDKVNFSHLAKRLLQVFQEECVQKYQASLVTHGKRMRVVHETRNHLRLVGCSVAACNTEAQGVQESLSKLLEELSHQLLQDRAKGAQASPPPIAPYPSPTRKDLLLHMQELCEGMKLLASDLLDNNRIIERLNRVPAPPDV
# Chain of Casein kinase II subunit alpha (Homo sapiens) (P68400 whole entry, looked up, canonical isoform): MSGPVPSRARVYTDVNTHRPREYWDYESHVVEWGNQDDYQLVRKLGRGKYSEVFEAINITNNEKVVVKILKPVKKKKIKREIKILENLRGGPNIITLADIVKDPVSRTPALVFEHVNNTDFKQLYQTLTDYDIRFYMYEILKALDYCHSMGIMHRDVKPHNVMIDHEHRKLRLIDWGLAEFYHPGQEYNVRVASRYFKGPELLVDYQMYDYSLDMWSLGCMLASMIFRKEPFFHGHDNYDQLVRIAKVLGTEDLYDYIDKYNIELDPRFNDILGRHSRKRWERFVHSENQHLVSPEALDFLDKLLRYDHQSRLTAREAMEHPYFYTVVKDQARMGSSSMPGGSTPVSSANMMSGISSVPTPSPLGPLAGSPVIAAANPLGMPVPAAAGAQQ
# Chain of Myosin light chain kinase (Homo sapiens) (Q32MK0 whole entry): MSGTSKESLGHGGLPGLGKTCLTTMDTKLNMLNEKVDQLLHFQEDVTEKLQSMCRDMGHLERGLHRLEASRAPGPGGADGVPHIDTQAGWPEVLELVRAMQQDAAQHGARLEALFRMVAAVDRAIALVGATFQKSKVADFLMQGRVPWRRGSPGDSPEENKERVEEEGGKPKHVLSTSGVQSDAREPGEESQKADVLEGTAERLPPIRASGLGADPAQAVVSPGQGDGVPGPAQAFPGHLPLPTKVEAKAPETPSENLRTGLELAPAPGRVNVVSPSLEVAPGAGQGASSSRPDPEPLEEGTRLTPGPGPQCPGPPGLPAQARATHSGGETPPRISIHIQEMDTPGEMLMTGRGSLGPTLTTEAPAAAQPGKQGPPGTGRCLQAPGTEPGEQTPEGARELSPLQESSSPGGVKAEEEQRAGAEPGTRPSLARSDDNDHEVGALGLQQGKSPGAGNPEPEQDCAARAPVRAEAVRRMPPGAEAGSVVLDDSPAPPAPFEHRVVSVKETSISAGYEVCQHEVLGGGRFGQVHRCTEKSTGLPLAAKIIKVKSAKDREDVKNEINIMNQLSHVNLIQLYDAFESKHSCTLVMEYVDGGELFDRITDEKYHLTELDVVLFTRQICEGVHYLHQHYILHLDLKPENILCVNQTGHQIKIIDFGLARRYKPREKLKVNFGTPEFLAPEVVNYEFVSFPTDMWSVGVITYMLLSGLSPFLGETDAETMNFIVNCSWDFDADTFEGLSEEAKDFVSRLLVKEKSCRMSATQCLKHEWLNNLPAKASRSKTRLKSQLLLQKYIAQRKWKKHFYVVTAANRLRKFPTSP
# Chain of Interleukin-1 receptor-associated kinase 1 (Homo sapiens) (P51617 whole entry, looked up): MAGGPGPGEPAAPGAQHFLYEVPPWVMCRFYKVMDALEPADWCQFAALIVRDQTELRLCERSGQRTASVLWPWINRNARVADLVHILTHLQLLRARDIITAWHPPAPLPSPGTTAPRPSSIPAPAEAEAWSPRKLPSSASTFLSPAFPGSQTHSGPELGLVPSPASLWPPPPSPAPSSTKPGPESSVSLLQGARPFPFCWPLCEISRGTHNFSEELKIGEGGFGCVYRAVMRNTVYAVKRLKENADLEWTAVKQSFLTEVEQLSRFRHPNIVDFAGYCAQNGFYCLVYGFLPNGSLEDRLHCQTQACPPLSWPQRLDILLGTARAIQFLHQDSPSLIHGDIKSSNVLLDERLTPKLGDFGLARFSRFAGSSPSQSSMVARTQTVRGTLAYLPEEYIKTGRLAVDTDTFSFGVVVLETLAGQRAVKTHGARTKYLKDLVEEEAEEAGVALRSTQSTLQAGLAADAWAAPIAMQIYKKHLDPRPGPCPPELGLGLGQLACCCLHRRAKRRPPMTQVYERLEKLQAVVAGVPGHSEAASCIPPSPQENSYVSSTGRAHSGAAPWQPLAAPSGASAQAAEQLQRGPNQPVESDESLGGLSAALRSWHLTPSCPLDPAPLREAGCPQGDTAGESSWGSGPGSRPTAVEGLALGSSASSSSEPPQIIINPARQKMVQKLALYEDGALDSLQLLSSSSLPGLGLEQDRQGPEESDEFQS
# Chain of Serine/threonine-protein kinase Chk2 (Homo sapiens) (O96017 whole entry): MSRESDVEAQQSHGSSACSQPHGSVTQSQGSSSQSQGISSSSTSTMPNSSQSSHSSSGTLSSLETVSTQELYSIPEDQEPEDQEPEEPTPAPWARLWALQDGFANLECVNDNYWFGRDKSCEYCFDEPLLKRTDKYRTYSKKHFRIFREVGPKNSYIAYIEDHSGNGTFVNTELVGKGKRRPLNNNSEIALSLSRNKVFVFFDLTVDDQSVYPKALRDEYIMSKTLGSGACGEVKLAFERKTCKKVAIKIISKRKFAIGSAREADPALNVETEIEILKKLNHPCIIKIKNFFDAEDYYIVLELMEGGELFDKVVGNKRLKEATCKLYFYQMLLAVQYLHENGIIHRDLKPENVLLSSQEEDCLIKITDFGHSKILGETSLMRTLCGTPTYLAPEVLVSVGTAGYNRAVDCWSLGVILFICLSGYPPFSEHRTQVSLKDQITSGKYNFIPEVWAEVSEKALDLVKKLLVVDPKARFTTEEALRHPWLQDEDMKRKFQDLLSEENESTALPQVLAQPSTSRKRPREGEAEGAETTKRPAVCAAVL
# Chain of MAP/microtubule affinity-regulating kinase 3 (Homo sapiens) (P27448 whole entry, looked up): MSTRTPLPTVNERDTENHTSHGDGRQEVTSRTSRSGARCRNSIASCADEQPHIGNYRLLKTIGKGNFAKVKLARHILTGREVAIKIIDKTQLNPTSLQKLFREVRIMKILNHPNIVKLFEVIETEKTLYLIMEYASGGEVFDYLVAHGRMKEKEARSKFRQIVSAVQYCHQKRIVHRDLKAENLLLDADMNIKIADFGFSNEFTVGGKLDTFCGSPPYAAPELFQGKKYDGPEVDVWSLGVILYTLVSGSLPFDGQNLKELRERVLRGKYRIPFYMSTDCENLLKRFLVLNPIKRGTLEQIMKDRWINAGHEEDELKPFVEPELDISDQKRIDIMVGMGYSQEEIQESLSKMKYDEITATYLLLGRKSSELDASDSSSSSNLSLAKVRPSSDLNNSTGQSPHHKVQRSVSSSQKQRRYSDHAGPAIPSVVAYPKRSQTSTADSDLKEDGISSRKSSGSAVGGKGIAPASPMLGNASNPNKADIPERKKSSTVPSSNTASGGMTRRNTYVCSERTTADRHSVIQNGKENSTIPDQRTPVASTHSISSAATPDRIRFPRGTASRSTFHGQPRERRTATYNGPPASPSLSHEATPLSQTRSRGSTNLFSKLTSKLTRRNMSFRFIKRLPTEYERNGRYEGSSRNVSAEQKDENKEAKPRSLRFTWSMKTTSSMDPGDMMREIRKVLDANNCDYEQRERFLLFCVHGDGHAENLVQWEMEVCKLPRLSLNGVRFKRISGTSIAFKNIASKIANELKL
# Chain of Serine/threonine-protein kinase RIO1 (Homo sapiens) (Q9BRS2 whole entry): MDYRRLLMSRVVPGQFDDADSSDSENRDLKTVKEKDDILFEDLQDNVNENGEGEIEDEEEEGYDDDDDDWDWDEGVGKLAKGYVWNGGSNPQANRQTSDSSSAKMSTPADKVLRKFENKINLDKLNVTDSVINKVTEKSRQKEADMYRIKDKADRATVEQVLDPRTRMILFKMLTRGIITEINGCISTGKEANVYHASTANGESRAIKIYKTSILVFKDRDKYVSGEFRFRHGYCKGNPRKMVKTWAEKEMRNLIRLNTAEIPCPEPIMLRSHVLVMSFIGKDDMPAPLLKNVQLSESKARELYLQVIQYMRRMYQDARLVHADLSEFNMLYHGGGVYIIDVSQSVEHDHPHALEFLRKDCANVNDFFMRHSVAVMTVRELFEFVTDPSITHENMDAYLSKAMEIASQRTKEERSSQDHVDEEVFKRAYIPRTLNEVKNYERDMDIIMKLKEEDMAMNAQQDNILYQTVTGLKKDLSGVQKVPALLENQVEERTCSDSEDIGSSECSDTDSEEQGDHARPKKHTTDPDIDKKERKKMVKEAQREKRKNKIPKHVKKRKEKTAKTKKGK
# Chain of Cyclin-dependent kinase 5 (Q00535 whole entry, looked up): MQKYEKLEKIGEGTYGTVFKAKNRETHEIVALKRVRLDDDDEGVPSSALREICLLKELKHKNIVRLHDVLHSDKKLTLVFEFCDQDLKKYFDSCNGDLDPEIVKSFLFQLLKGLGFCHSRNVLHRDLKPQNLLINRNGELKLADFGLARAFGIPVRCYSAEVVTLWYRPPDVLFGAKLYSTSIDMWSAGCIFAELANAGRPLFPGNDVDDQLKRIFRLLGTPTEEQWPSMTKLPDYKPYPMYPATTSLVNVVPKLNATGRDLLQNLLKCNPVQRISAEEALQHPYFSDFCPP
smiles,measurement,setting,value
C[C@H](NC(=O)Nc1cc2[nH]ncc2c(CO)n1)c1ccccn1 [ERKi-NC],residual activity,[1]; [46],100%
same,residual activity,[2]; [46],100%
same,residual activity,[3]; [46],100%
same,residual activity,[4]; [46],100%
same,residual activity,[5]; [46],85.5%
same,residual activity,[6]; [46],100%
same,residual activity,[7]; [46],100%
same,residual activity,[8]; [46],100%
same,residual activity,[9]; [46],17%
same,residual activity,[10]; [46],100%
same,residual activity,[11]; [46],100%
same,residual activity,[12]; [46],76.7%
same,residual activity,[13]; [46],80.3%
same,residual activity,[14]; [46],100%
same,residual activity,[15]; [46],100%
same,inhibition,[16],7.22%
same,residual activity,[17]; [46],63.8%
same,inhibition,[18],18.7%
same,residual activity,[19]; [46],89.6%
same,residual activity,[20]; [46],100%
same,residual activity,[21]; [46],100%
same,residual activity,[22]; [46],88%
same,residual activity,[23]; [46],100%
same,residual activity,[24]; [46],100%
same,residual activity,[25]; [46],100%
same,residual activity,[26]; [46],86.2%
same,residual activity,[27]; [46],94.8%
same,residual activity,[28]; [46],100%
same,residual activity,[29]; [46],100%
same,residual activity,[30]; [46],89.4%
same,residual activity,[31]; [46],100%
same,residual activity,[32]; [46],100%
same,residual activity,[33]; [46],100%
same,residual activity,[34]; [46],100%
same,residual activity,[35]; [46],100%
same,residual activity,[36]; [46],97.1%
same,residual activity,[37]; [46],94.2%
same,residual activity,[38]; [46],61%
same,residual activity,[39]; [46],86.8%
same,residual activity,[40]; [46],100%
same,residual activity,[41]; [46],100%
same,residual activity,[42]; [46],100%
same,residual activity,[43]; [46],95.9%
same,residual activity,[44]; [46],100%
same,residual activity,[45]; [46],100%
C[C@@H](NC(=O)Nc1cc2[nH]ncc2c(CO)n1)c1ccccc1 [ERKi],residual activity,[1]; [47],82.1%
same,residual activity,[2]; [47],66.7%
same,residual activity,[3]; [47],100%
same,residual activity,[4]; [47],71.6%
same,residual activity,[5]; [47],94.4%
same,residual activity,[6]; [47],94.6%
same,residual activity,[7]; [47],100%
same,residual activity,[8]; [47],97.7%
same,residual activity,[9]; [47],0.2%
same,residual activity,[10]; [47],100%
same,residual activity,[11]; [47],88.7%
same,residual activity,[12]; [47],78.6%
same,residual activity,[13]; [47],85.2%
same,residual activity,[14]; [47],88.2%
same,residual activity,[15]; [47],81.4%
same,inhibition,[16],35.8%
same,residual activity,[17]; [47],94.9%
same,inhibition,[18],-0.569%
same,residual activity,[19]; [47],100%
same,residual activity,[20]; [47],69.4%
same,residual activity,[21]; [47],94.9%
same,residual activity,[22]; [47],89.3%
same,residual activity,[23]; [47],66.7%
same,residual activity,[24]; [47],77.1%
same,residual activity,[25]; [47],94.6%
same,residual activity,[26]; [47],87.6%
same,residual activity,[27]; [47],87.3%
same,residual activity,[28]; [47],98.5%
same,residual activity,[29]; [47],78.8%
same,residual activity,[30]; [47],86.9%
same,residual activity,[31]; [47],82.9%
same,residual activity,[32]; [47],97.9%
same,residual activity,[33]; [47],97.5%
same,residual activity,[34]; [47],100%
same,residual activity,[35]; [47],94%
same,residual activity,[36]; [47],89.2%
same,residual activity,[37]; [47],97.4%
same,residual activity,[38]; [47],100%
same,residual activity,[39]; [47],71.2%
same,residual activity,[40]; [47],100%
same,residual activity,[41]; [47],74.1%
same,residual activity,[42]; [47],79.4%
same,residual activity,[43]; [47],100%
same,residual activity,[44]; [47],100%
same,residual activity,[45]; [47],54.8%
